Laboratory results published in patent US10889569B2, “Condensed ring group azacyclobutyl triazole derivative, preparation method therefor and use thereof in medicine” (Jiangsu Hengrui Medicine Co., Ltd., priority 2016, dated 2021).

Legend:
Type in all cases: cell-based
human OTR = human OTR (Homo sapiens, UniProt P30559); experiment: Inhibition activity on human OTR (Fluo-4 calcium assay, HEK293/human OTR stably transfected cells); conditions: oxytocin 3 nM
Procedure: The inhibition effect of the compounds of the present invention on the activity of human OTR protein expressed in HEK293/human OTR stably transfected cells was determined by the following experimental method:
The pcDNA3.1-hOTR plasmid was transferred into HEK293 cells with the Lipofectamine® 3000 transfection reagent; G418 was added on the next day to screen, and monoclonal cell lines were selected.
(§1) HEK293/human OTR stably transfected cells were inoculated in a 96-well plate with an inoculation density of 25,000 cells/well one day in advance. On the next day, a loading buffer containing Fluo-4 dye was formulated using the reagents in the Fluo-4 NW calcium assay kit, and the culture medium was then removed; 100 μl of the loading buffer containing Fluo-4 dye were added to each well, and the plate was incubated at 37° C. for 30 minutes. After that, the plate was moved to room temperature and equilibrated for 10 minutes. The compounds were formulated at 10^6, 10^5, 10^4, 10^3, 10^2 and 10^1 nM. 1 μl of the compounds in each concentration was added to each well, and the plate was incubated at room temperature for 10 minutes. 50 μl of oxytocin polypeptide (3 nM) were automatically added by the machine, and the values were immediately detected at 494/516 nM by the flexstation 3 microplate reader. IC50 values of the compounds were calculated by Graphpad prism software using fluorescence signals corresponding to different concentrations.
The inhibition activity of the compounds of the present invention on human OTR was determined by the above test, and the obtained IC50 values are shown in Table 1.

human V1bR = human V1bR (Homo sapiens, UniProt P47901); experiment: Inhibition activity on human V1bR (Fluo-4 calcium assay, HEK293/human V1bR pool cells); conditions: vasopressin 3 nM
Procedure: The inhibition effect of the compounds of the present invention on the activity of human V1bR protein expressed in HEK293/human V1bR cells was determined by the following experimental method:
The pcDNA3.1-V1bR plasmid was transferred into HEK293 cells with the Lipofectamine® 3000 transfection reagent; G418 was added on the next day, and the HEK293/human V1bR pool cell lines were obtained.
as §1, with “HEK293/human V1bR pool” for “HEK293/human OTR stably transfected”, “formulated into” for “formulated at”, “of vasopressin” for “of oxytocin”
The inhibition activity of the compounds of the present invention on human V1bR was determined by the above test, and the obtained IC50 values are shown in Table 3.

human V2R = human V2R (Homo sapiens (Human), UniProt P30518); experiment: Inhibition activity on human V2R (cAMP HTRF assay, HEK293/human V2R pool cells); conditions: vasopressin
Procedure: The inhibition effect of the compounds of the present invention on the activity of human V2R protein expressed in HEK293/human V2R cells was determined by the following experimental method:
The pcDNA3.1-V2R plasmid was transferred into HEK293 cells with the Lipofectamine® 3000 transfection reagent; G418 was added on the next day, and the HEK293/human V2R pool cell lines were obtained.
HEK293/human V2R pool cells were dissociated with the cell dissociation solution (enzyme-free), thereby dissociating the cells from the cell culture dish into individual cells. Then the cell solution was blown well, and centrifuged to remove the supernatant. The cells were resuspended in the test buffer 1 (1×HBSS+20 mM HEPES+0.1% BSA) and counted. The cell density was adjusted to 1250 cells/5 μl, i.e., 2.5*10^5/ml.
The compounds were formulated into a series of concentrations of 20 mM, 6.67 mM, 2.22 mM, 0.74 mM, 0.25 mM, 0.08 mM, 27.4 μM, 9.14 μM, 3.05 μM, 1.02 μM, 0.34 μM and 0 μM (DMSO) with pure DMSO. The compounds were then diluted into a 4-fold working concentration solution with the test buffer 2 (test buffer 1+1 mM IBMX).
Agonist: 460 μM vasopressin was used as the mother liquor, which was formulated at 2 μM with DMSO, and then diluted to 0.5 nM with the test buffer 2.
Standards: The first point was 20 μl of a stock solution (2848 nM), which was diluted successively to a total of eleven concentrations in a 4-fold concentration gradient with the test buffer 1 from the second point.
1. The well-mixed cells were added to a 384-well plate (5 μl/well) without changing the tip.
2. The test compounds and positive compound formulated were added (2.5 μl/well), and the tips were changed.
3. The plate was centrifuged at 1000 rpm for 1 min, shaken for 30 sec to mix well, and incubated at room temperature for 30 min.
4. The standard curve wells were added with the test buffer 2 (5 μl/well).
5. The formulated agonist was added (2.5 μl/well), and the tips were changed; the plate was centrifuged at 1000 rpm for 1 min, shaken for 30 sec to mix well, and incubated at room temperature for 30 min.
6. cAMP-d2 (a component in the cAMP dynamic 2 kit) and Anti-cAMP-Eu-Cryptate (a component in the cAMP dynamic 2 kit) were formulated in the dark, which were then mixed well with cAMP lysate (a component in the cAMP dynamic 2 kit) in a ratio of 1:4. Each well was added with the formulated cAMP-d2 solution (5 μl/well), followed by addition of Anti-cAMP-Eu-Cryptate (5 μl/well). The plate was shaken for 30 sec to mix well, and incubated in the dark at room temperature for 1 h.
The HTRF Signals were Read by the PheraStar Multi-Function Microplate Reader.
The data in this test was processed using the data processing software Graphpad Prism.
The inhibition activity of the compounds of the present invention on human V2R was determined by the above test, and the IC50 values obtained are shown in Table 4.

human V1aR = human V1aR (Homo sapiens (Human), UniProt P37288); experiment: Inhibition activity on human V1aR (Fluo-4 calcium assay, HEK293/human V1aR stably transfected cells); conditions: vasopressin 3 nM
Procedure: The inhibition effect of the compounds of the present invention on the activity of human V1 aR protein expressed in HEK293/human V1aR stably transfected cells was determined by the following experimental method:
The pcDNA3.1-V1aR plasmid was transferred into HEK293 cells with the Lipofectamine® 3000 transfection reagent; G418 was added on the next day to screen, and monoclonal cell lines were selected.
as §1, with “V1aR” for “OTR”, “vasopressin” for “oxytocin”
The inhibition activity of the compounds of the present invention on human V1aR was determined by the above test, and the obtained IC50 values are shown in Table 2.

human V2R, sequence (P30518 whole entry): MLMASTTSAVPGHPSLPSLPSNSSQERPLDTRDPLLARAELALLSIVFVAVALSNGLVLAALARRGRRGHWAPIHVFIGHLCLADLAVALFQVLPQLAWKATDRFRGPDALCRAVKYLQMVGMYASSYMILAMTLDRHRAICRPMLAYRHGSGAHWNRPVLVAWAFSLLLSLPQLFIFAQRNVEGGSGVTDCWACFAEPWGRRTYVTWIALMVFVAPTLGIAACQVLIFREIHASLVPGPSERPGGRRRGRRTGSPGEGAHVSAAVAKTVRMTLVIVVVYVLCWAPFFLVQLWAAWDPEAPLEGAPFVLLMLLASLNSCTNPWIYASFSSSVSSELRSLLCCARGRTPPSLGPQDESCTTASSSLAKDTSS
human V1aR, sequence (P37288 whole entry): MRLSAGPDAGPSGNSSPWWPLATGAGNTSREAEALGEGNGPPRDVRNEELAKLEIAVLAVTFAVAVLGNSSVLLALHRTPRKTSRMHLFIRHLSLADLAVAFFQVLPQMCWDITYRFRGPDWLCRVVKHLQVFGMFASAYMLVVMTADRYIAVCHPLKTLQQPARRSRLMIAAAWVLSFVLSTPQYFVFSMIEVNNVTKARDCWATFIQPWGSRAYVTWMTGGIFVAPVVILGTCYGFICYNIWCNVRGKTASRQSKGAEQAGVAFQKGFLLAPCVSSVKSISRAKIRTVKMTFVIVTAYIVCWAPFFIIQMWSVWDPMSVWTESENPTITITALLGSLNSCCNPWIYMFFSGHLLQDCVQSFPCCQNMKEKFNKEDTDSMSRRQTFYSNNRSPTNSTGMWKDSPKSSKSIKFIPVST

Structure (SMILES) | IC50 (human OTR) [µM] | IC50 (human V1bR) [µM] | IC50 (human V2R) [µM] | IC50 (human V1aR) [µM]
COCc1nnc(N2CC(c3cn(C)c4cc(F)ccc34)C2)n1-c1ccc(OC)nc1 [Example 14, 6-Fluoro-3-(1-(5-(methoxymethyl)-4-(6-methoxypyridin-3-yl)-4H-1,2,4-triazol-3-yl)azetidin-3-yl)-1-methyl-1H-indole] | 0.13 | 25.8 | 11.8 | 10.9
COc1ccc(-n2c(C)nnc2N2CC(N3CCCc4cc(F)ccc43)C2)cn1 [Example 29, 6-Fluoro-1-(1-(4-(6-methoxypyridin-3-yl)-5-methyl-4H-1,2,4-triazol-3-yl)azetidin-3-yl)-1,2,3,4-tetrahydroquinoline] | 0.064 | 95.1 | 12.1 | 6.2
COCc1nnc(N2CC(n3cc(Cl)c4cc(F)ccc43)C2)n1-c1ccc(OC)nc1 [Example 10, 3-Chloro-5-fluoro-1-(1-(5-(methoxymethyl)-4-(6-methoxypyridin-3-yl)-4H-1,2,4-triazol-3-yl)azetidin-3-yl)-1H-indole] | 0.091 | 12.4 | 20.7 | 5.7
CCOCc1nnc(N2CC(N3CCOc4cc(F)ccc43)C2)n1-c1ccc(OC)nc1 [Example 31, 4-(1-(5-(Ethoxymethyl)-4-(6-methoxypyridin-3-yl)-4H-1,2,4-triazol-3-yl)azetidin-3-yl)-7-fluoro-3,4-dihydro-2H-benzo[b][1,4]oxazine] | 0.079 | 54.5 | 5.8 | 3.5

The next compounds have a lower IC50 (human OTR) than those just listed; values first:

IC50 (human OTR) [µM] | IC50 (human V1bR) [µM] | IC50 (human V2R) [µM] | IC50 (human V1aR) [µM] | Structure (SMILES)
0.04 | 42.7 | 12.5 | 1.2 | COCc1nnc(N2CC(c3csc4cc(F)ccc34)C2)n1-c1ccc(OC)nc1 [Example 9, 5-(3-(3-(6-Fluorobenzo[b]thiophen-3-yl)azetidin-1-yl)-5-(methoxymethyl)-4H-1,2,4-triazol-4-yl)-2-methoxypyridine]
0.025 | 38.8 | 17.3 | 2.7 | COCc1nnc(N2CC(C3CCOc4cc(F)ccc43)C2)n1-c1ccc(OC)nc1 (stereo not shown) [Example 21, 5-(3-(3-(7-Fluorobenzodihydropyran-4-yl)azetidin-1-yl)-5-(methoxymethyl)-4H-1,2,4-triazol-4-yl)-2-methoxypyridine]
0.004 | 20.7 | 6.7 | 8.5 | COCc1nnc(N2CC(N3CCCc4cc(F)ccc43)C2)n1-c1ccc(OC)nc1 [Example 30, 6-Fluoro-1-(1-(5-(methoxymethyl)-4-(6-methoxypyridin-3-yl)-4H-1,2,4-triazol-3-yl)azetidin-3-yl)-1,2,3,4-tetrahydroquinoline]
